Molecules are shown by their SMILES. Read-outs that look alike come from different tables or passages of the source.

This assay relates to Mycosphaerella graminicola; Anamorph: Septoria tritici; Bayer Code SEPTTR (standard laboratory isolate, SI SEPTTR). The assay can be described thus: Type A (high volume) assay, leaf blotch of wheat, standard laboratory SEPTTR isolate (SI SEPTTR). Format: in vivo, Mycosphaerella graminicola on wheat plants (variety Yuma). The following applies: standard laboratory isolate, high volume, 50 ppm, wheat (Yuma); for pest or weed control at 50 ppm: Zymoseptoria tritici. On the procedure: Example A: Evaluation of Fungicidal Activity: Leaf Blotch of Wheat (Mycosphaerella graminicola; Anamorph: Septoria tritici; Bayer Code SEPTTR)
For Type A assays, technical grades of the experimental fungicides in Table 4 below were dissolved in acetone, and then mixed with nine volumes of water containing 110 ppm Triton X-100. The fungicide solutions were applied onto wheat seedlings using an automated booth sprayer. For Type B assays, emulsifiable concentrate (EC) formulations of technical grades of the experimental fungicides in Table 4 below were prepared at 10% (w/v), and then mixed with 150 volumes of 0.1% Trycol 5941. These solutions were applied onto wheat seedlings using an automated track sprayer at 200 L/ha. All sprayed plants were allowed to air dry prior to further handling.
Wheat plants (variety Yuma) were grown from seed in a greenhouse in 50% mineral soil/50% soil-less Metro mix until the first leaf was fully emerged, with 7-10 seedlings per pot. Prior to or after application of experimental fungicides, plants were inoculated either with spores of a standard laboratory SEPTTR isolate (SI SEPTTR) or with spores from a SEPTTR field isolate collected from Wellsbourne, England in 2012 (FI SEPTTR). After inoculation the plants were kept for 3 days at 20° C. in 100% relative humidity (one day in a dark dew chamber followed by two days in a lighted dew chamber). Plants were then transferred to a 20° C. greenhouse for disease development. When disease symptoms were fully expressed on untreated plants, infection levels on treated plants were assessed on a scale of 0 to 100 percent disease severity. Percent disease control was calculated using the ratio of disease severity on treated plants relative to untreated plants.

Setting [1] is: 24 h, 1 Day Protectant, read-out: Disease Control, SI SEPTTR Type A Assay (50 ppm) 1 DP.
[2] abbreviates: 72 h, 3 Day Curative, read-out: Disease Control, SI SEPTTR Type A Assay (50 ppm) 3 DC.

Take `N#Cc1ccc(Oc2ccc(C(O)(CC3CC3)Cn3cnnn3)nc2)cc1` (stereo not shown) [Compound 23]: the pest or weed control at 50 ppm is less than 40% under setting [1] and 60 to 79% under setting [2].

`CC(C)C(O)(c1cncnc1)c1ccc(Oc2ccc(Cl)nc2)cn1` (stereo not shown) [Compound 10]: the pest or weed control at 50 ppm is, setting by setting: under setting [1], 80 to 100%; under setting [2], 80 to 100%.

With `CCC(O)(c1cncnc1)c1ccc(Oc2ccc(C(F)(F)F)cc2)cn1` (stereo not shown) [Compound 34], the pest or weed control at 50 ppm by setting is: under setting [1], 80 to 100%; under setting [2], 60 to 79%.

Turning to `CC(C)(C)C(O)(c1cccnc1)c1ccc(-c2ccc(OC(F)(F)F)cc2F)cn1` (stereo not shown) [Compound 147], under setting [1], the pest or weed control at 50 ppm fell in the range of 80 to 100%.

As for `OC(C#CC1CC1)(c1cncnc1)c1ccc(Oc2ccc(Cl)cc2)cn1` (stereo not shown) [Compound 40], the pest or weed control at 50 ppm is, setting by setting: under setting [1], 80 to 100%; under setting [2], 60 to 79%.

For `OC(c1cncnc1)(c1ccc(-c2ccc(Cl)cc2)cn1)C1CC1` (stereo not shown) [Compound 66], the pest or weed control at 50 ppm under setting [1] lay within 80 to 100%.

For the compound `OC(CCc1ccc(F)cc1F)(Cn1cnnn1)c1ccc(Oc2ccc(C(F)(F)F)cn2)cn1` (stereo not shown) [Compound 5], the pest or weed control at 50 ppm is less than 40% under setting [1] and 40 to 59% under setting [2].

`COc1ncncc1C(O)(c1ccc(-c2ccc(C(C)(C)C)cc2)cn1)C(C)(C)C` (stereo not shown) [Compound 168]: under setting [1], the pest or weed control at 50 ppm fell in the range of 60 to 79%.

In the case of `CC(C)(C)C#CC(O)(c1cncnc1)c1ccc(Oc2ccc(Cl)cn2)cn1` (stereo not shown) [Compound 49], the pest or weed control at 50 ppm lay within 60 to 79% under setting [1] and 80 to 100% under setting [2].

With `CC(C)(C)C(O)(Cc1cncnc1)c1ccc(-c2ccc(OC(F)F)cc2)cn1` (stereo not shown) [Compound 68], the pest or weed control at 50 ppm under setting [1] was 80 to 100%.

For the compound `OC(Cc1ccc(F)cc1F)(c1cncnc1)c1ccc(-c2ccc(OC(F)(F)F)cc2)cn1` (stereo not shown) [Compound 138], under setting [1], the pest or weed control at 50 ppm was 80 to 100%.

As to `CC(C)(C)C#CC(O)(c1cncnc1)c1ccc(Oc2ccc(Cl)nc2)cn1` (stereo not shown) [Compound 35], the pest or weed control at 50 ppm under setting [1] is less than 40% and the pest or weed control at 50 ppm under setting [2] fell in the range of 60 to 79%.

For `CCC(O)(c1cncnc1)c1ccc(Oc2ccc(OC(F)(F)F)cc2)cn1` (stereo not shown) [Compound 32], the pest or weed control at 50 ppm under setting [1] lay in the range of 80 to 100% and the pest or weed control at 50 ppm under setting [2] lay within 80 to 100%.

With `OC(C#CC1CC1)(c1cncnc1)c1ccc(Oc2ccc(OC(F)(F)F)cc2)cn1` (stereo not shown) [Compound 48], the pest or weed control at 50 ppm is less than 40% under setting [1] and less than 40% under setting [2].

`CCC(O)(c1cncnc1)c1ccc(Oc2ccc(Cl)cn2)cn1` (stereo not shown) [Compound 54]: the pest or weed control at 50 ppm under setting [1] is less than 40% and the pest or weed control at 50 ppm under setting [2] was 40 to 59%.

With `CC(C)(C)C(O)(c1cncnc1)c1ccc(-c2ccc(CC#N)cc2)cn1` (stereo not shown) [Compound 153], under setting [1], the pest or weed control at 50 ppm was in the range of 80 to 100%.

For the compound `CC(C)(C)C(O)(c1cncnc1)c1ccc(-c2cccnc2)cn1` (stereo not shown) [Compound 126], the pest or weed control at 50 ppm under setting [1] lay in the range of 60 to 79%.

Consider `OC(Cc1cncnc1)(c1ccc(-c2ccc(Cl)cc2)cn1)C(F)(F)F` (stereo not shown) [Compound 46, 2-(5-(4-chlorophenyl)pyridin-2-yl)-1,1,1-trifluoro-3-(pyrimidin-5-yl)propan-2-ol], for which the pest or weed control at 50 ppm runs as follows: under setting [1], 80 to 100%; under setting [2], 80 to 100%.

As for `CC(C)C(O)(c1cncnc1)c1ccc(Oc2ccc(C(F)(F)F)cn2)cn1` (stereo not shown) [Compound 58], the pest or weed control at 50 ppm by setting is: under setting [1], 60 to 79%; under setting [2], 80 to 100%.

With `OC(CCc1ccc(Cl)cc1F)(Cn1cnnn1)c1ccc(Oc2ccc(C(F)(F)F)cn2)cn1` (stereo not shown) [Compound 12], the pest or weed control at 50 ppm is 80 to 100% under setting [1] and less than 40% under setting [2].

Turning to `COc1ncncc1C(O)(c1ccc(-c2ccc(C(F)(F)F)nc2)cn1)C(C)(C)C` (stereo not shown) [Compound 172], the pest or weed control at 50 ppm under setting [1] is 80 to 100%.

On to `OC(Cc1cncnc1)(c1ccc(-c2ccc(Cl)cc2)cn1)C1CCCC1` (stereo not shown) [Compound 56], for which the pest or weed control at 50 ppm under setting [1] lay within 80 to 100% and the pest or weed control at 50 ppm under setting [2] is 80 to 100%.

For `Cc1ccc(Oc2ccc(C(O)(C#CC(C)(C)C)c3cncnc3)nc2)nc1` (stereo not shown) [Compound 50], the pest or weed control at 50 ppm reads like this: under setting [1], less than 40%; under setting [2], 60 to 79%.

With `OC(c1cncnc1)(c1ccc(Oc2ccc(Cl)nc2)cn1)C1CC1` (stereo not shown) [Compound 11], the pest or weed control at 50 ppm by setting is: under setting [1], 40 to 59%; under setting [2], 40 to 59%.

For the compound `CC(C)C(O)(Cn1cnnn1)c1ccc(Oc2ccc(C#N)cc2)cn1` (stereo not shown) [Compound 24], the pest or weed control at 50 ppm was less than 40% under setting [1] and less than 40% under setting [2].

`CC(C)(C)C(O)(c1cncnc1)c1ccc(-c2cncnc2)cn1` (stereo not shown) [Compound 113]: the pest or weed control at 50 ppm under setting [1] fell in the range of 60 to 79%.

For `C=Cc1ccc(-c2ccc(C(O)(c3cncnc3)C(C)(C)C)nc2)cc1` (stereo not shown) [Compound 109], under setting [1], the pest or weed control at 50 ppm lay in the range of 60 to 79%.

`OC(c1cncnc1)(c1ccc(Oc2ccc(C(F)(F)F)cn2)cn1)C1CC1` (stereo not shown) [Compound 67]: the pest or weed control at 50 ppm under setting [1] is less than 40%.

With `CC(C)(C)C#CC(O)(c1cncnc1)c1ccc(Oc2ccc(OC(F)(F)F)cc2)cn1` (stereo not shown) [Compound 31], the pest or weed control at 50 ppm by setting is: under setting [1], less than 40%; under setting [2], 60 to 79%.

Take `OC(c1ccc(-c2ccc(OC(F)(F)F)cc2)cn1)(c1cncs1)c1ccc(F)cc1F` (stereo not shown) [Compound 94]: the pest or weed control at 50 ppm under setting [1] fell in the range of 60 to 79%.

`CC(C)C(O)(c1cncnc1)c1ccc(Oc2ccc(C(F)(F)F)cc2)cn1` (stereo not shown) [Compound 75]: under “1 Day Protectant”, the “Disease Control, SI SEPTTR Type A Assay (50 ppm) 1 DP” value was “A (80-100)”.

As to `N#Cc1ccc(Oc2ccc(C(O)(Cn3cnnn3)C(F)(F)c3ccc(F)cc3F)nc2)cc1` (stereo not shown) [Compound 1, 4-((6-(1-(2,4-difluorophenyl)-1,1-difluoro-2-hydroxy-3-(1H-tetrazol-1-yl)propan-2-yl)pyridin-3-yl)oxy)benzonitrile], the pest or weed control at 50 ppm under setting [1] is less than 40% and the pest or weed control at 50 ppm under setting [2] was 40 to 59%.

`CCC(O)(c1cncnc1)c1ccc(Oc2ccc(Cl)nc2)cn1` (stereo not shown) [Compound 36]: the pest or weed control at 50 ppm runs as follows: under setting [1], less than 40%; under setting [2], 60 to 79%.

Regarding `COc1ncncc1C(O)(c1ccc(-c2ccc(C(C)(C)C#N)cc2C)cn1)C(C)(C)C` (stereo not shown) [Compound 129, 2-(4-(6-(1-hydroxy-1-(4-methoxypyrimidin-5-yl)-2,2-dimethylpropyl)pyridin-3-yl)-3-methylphenyl)-2-methylpropanenitrile], the pest or weed control at 50 ppm under setting [1] was 60 to 79%.

Turning to `CC(C)C(O)(c1ccc(-c2ccc(OC(F)F)cc2)cn1)c1cncs1` (stereo not shown) [Compound 85], the pest or weed control at 50 ppm under setting [1] was in the range of 80 to 100%.

On to `CC(C)(C)C(O)(c1cncnc1)c1ccc(-c2ccoc2)cn1` (stereo not shown) [Compound 123], for which the pest or weed control at 50 ppm under setting [1] lay in the range of 60 to 79%.

`CC(C)(C)C#CC(O)(c1cncnc1)c1ccc(Oc2ccc(C(F)(F)F)cc2)cn1` (stereo not shown) [Compound 33]: the pest or weed control at 50 ppm is, setting by setting: under setting [1], 80 to 100%; under setting [2], 60 to 79%.

With `CC(C)(C)C#CC(O)(c1cncnc1)c1ccc(Oc2ccc(Cl)cc2)cn1` (stereo not shown) [Compound 29, 1-(5-(4-chlorophenoxy)pyridin-2-yl)-4,4-dimethyl-1-(pyrimidin-5-yl)pent-2-yn-1-ol], the pest or weed control at 50 ppm is, setting by setting: under setting [1], 80 to 100%; under setting [2], 80 to 100%.

`CC(C)C(O)(c1cncnc1)c1ccc(Oc2ccc(C#N)cc2)cn1` (stereo not shown) [Compound 16]: the pest or weed control at 50 ppm under setting [1] lay within 80 to 100% and the pest or weed control at 50 ppm under setting [2] lay within 80 to 100%.

For the compound `CC(C)C(O)(c1ccc(-c2ccc(OC(F)(F)F)cc2)cn1)c1cncs1` (stereo not shown) [Compound 87], the pest or weed control at 50 ppm under setting [1] was 80 to 100%.

Consider `OC(c1cncnc1)(c1ccc(Oc2ccc(OC(F)(F)F)cc2)cn1)C1CC1` (stereo not shown) [Compound 8], for which the pest or weed control at 50 ppm lay within 80 to 100% under setting [1] and 80 to 100% under setting [2].

For `COc1ncncc1C(O)(c1ccc(-c2ccc(C#N)cc2)cn1)C(C)(C)C` (stereo not shown) [Compound 170], the pest or weed control at 50 ppm under setting [1] was in the range of 80 to 100%.

With `OC(CCc1ccc(F)cc1F)(Cn1cnnn1)c1ccc(Oc2ccc(Cl)cn2)cn1` (stereo not shown) [Compound 2, 2-(5-((5-chloropyridin-2-yl)oxy)pyridin-2-yl)-4-(2,4-difluorophenyl)-1-(1H-tetrazol-1-yl)butan-2-ol], the pest or weed control at 50 ppm by setting is: under setting [1], 80 to 100%; under setting [2], less than 40%.

For the compound `CC(C)C(O)(c1cncnc1)c1ccc(Oc2cccc(Cl)n2)cn1` (stereo not shown) [Compound 69], under setting [1], the pest or weed control at 50 ppm is 80 to 100%.

`OC(c1cncnc1)(c1ccc(Oc2ccc(Cl)cc2)cn1)C1CC1` (stereo not shown) [Compound 7]: the pest or weed control at 50 ppm by setting is: under setting [1], 80 to 100%; under setting [2], 80 to 100%.

Consider `CC(C)(C)C(O)(Cn1cnnn1)c1ccc(-c2ccc(OC(F)(F)F)cc2)cn1` (stereo not shown) [Compound 26, 3,3-dimethyl-1-(1H-tetrazol-1-yl)-2-[5-[4-(trifluoro-methoxy)phenyl]pyridine-2-yl]butan-2-ol], for which the pest or weed control at 50 ppm reads like this: under setting [1], less than 40%; under setting [2], 40 to 59%.

For the origin of these results see patent publication US10167300B2, “Metalloenzyme inhibitor compounds as fungicides” (priority 2014, dated 2019).
